From patent US20240368133A1, “Compounds for the Treatment of Pain, in Particular, Neuropathic Pain, and/or Other Diseases or Disorders that are Associated with AT2R and/or AT2R Mediated Signaling” (Confo Therapeutics N.V., priority 2021, published 2024)

Tests used:
Type in all cases: in vitro ADME
[1] = PAMPA (Parallel Artificial Membrane Permeability Assay), GIT model
Excerpt: The Parallel Artificial Membrane Permeability Assay (PAMPA) is used as an in vitro model of passive, transcellular permeation. PAMPA eliminates the added complexities of active transport, allowing ranking compounds just based on a simple membrane permeability property. This simple assay also allows evaluation of permeability over a large pH range, which is valuable for a preliminary understanding of how orally delivered compounds might be absorbed across the entire gastrointestinal tract. Depending upon the types of lipids used and other experimental conditions, PAMPA may be designed to model absorption in gastrointestinal tract (PAMPA-GIT), blood-brain barrier penetration (PAMPA-BBB) or skin penetration (Skin PAMPA).
All steps of the PAMPA were carried out according to pION Inc. PAMPA Explorer™ Manual. The main principle of the assay is the incubation of compound in donor chamber (a well in Donor Plate) with aqueous buffer, which is separated from acceptor chamber (a well in Acceptor Plate) with another buffer by a phospholipid or hydrocarbon membrane fixed on a filter support. After the test, concentrations in the corresponding donor and acceptor wells are measured and permeability is calculated.
GIT model was simulated using GIT-0 phospholipid mix. Verapamil and quinidine (high permeability) and ranitidine (low permeability) were used as reference compounds. All compounds were tested in triplicates.
Solutions of the test and reference compounds were added into the Donor Plate wells in Prisma HT buffer (pH 7.4). Acceptor Sink Buffer was added into each well of the Acceptor Plate. Incubation was done at room temperature for 4 hours without stirring. After incubation, aliquots from both plates were transferred to optic UV-Vis plates and optic plates were read on microplate reader in absorbance mode in the range of 202-500 nm with 4 nm step. Compounds with low UV-Vis signal were detected by LC-MS/MS method (API 3000 (PE Sciex)). Both the positive and negative ion modes of the TurboIonSpray ion source were used. Acquisition and analysis of the data were performed using Analyst 1.5.2 software (PE Sciex). The apparent permeability coefficient was calculated according to the equation shown below:
with: • VD=volume of transport buffer in donor compartment • A=surface area of the lipids in the insert (effective growth area of the insert—0.3 sq.cm) • t=time of the assay, seconds • Cdon=final concentration of test compound in the donor compartment • Cref=starting concentration of test compound in the donor compartment • εa=apparent filter porosity, equals to 0.76
[formula] • Cacc=final concentration of test compound in the […] compartment • τss=steady state lag time, estimated as (54RM+1)×60 s
Values of Cdon/Cref and Cacc/Cref are practically calculated using optical absorbance data. Mass retention by the lipid membrane is a normal condition in PAMPA assays for hydrophobic compounds but high levels of the mass retention makes compounds more permeable in vivo than it could be predicted from PAMPA assay. Mass retention was calculated as follows:
• [drug]acc=final OD of test compound in acceptor well • [drug]d=starting OD of test compound in a donor well • [drug]fd=final OD of test compound in a donor well

[2] = Plasma protein binding (equilibrium dialysis), mouse; settings: for fraction unbound: equilibrium dialysis, read-out: PPB (%), mouse (converted); for recovery: plasma (undiluted, freshly thawed), PPB assay recovery
Description: (§1) The assay was performed in a multiple-use 96-well dialysis unit (HTD96b dialyzer). Each individual well unit consisted of 2 chambers separated by a vertically aligned dialysis membrane of predetermined pore size (MWCO 12-14 kDa). 120 μl of non-diluted freshly thawed mouse, rat or human plasma spiked with the compound (1 μM, final DMSO concentration 1%) was added to one chamber and the same volume of PBS buffer pH 7.4 to the other chamber. HTD96b dialyzer was covered with adhesive sealing film and incubated at 37° C., shaking at 100 rpm for 5 hours.
(§2) For samples preparation, an aliquot of the content of each chamber had been mixed with the same volume of the blank opposite matrix. In order to define non-specific loss of the compound during this assay, a standard solution was created by mixing an aliquot of spiked plasma with blank buffer without dialysis. Samples were diluted 10-fold with 100% acetonitrile with subsequent plasma proteins sedimentation by centrifuging at 6000 rpm for 5 minutes. Supernatants were analyzed using HPLC system coupled with tandem mass spectrometer (API3000 PE Sciex). Acquisition and analysis of the data were performed using Analyst 1.5.2 software (PE Sciex). The percentage of plasma protein bound compound and recovery were calculated using following equations: […]
(§3) The percentage of plasma protein bound compound and recovery were calculated using following equations:
(§4) with: • Cplasma=peak area of the compound in the plasma/peak area of the IS in the plasma • Cbuffer=peak area of the compound in the buffer/peak area of the IS in the buffer • ‘Concentration’ is the ratio between compound and IS peak areas
(§5) The recovery is a control, which allows to be sure that the compound has not a non-specific binding to the plates or is not stable in the plasma in these conditions:
(§6) with: • PBS=(ratio of the peak area of the compound/peak area of the IS) in the PBS compartment after 4 h • Plasma=(ratio of the peak area of the compound/peak area of IS) in the plasma compartment after 4 h • Recov=Recovery=ratio of the peak are of the compound I the well recovery/peak area of the IS in the well recovery at TO
(§7) The solubility of the compound in the final test concentration in PBS is checked by microscope to indicate whether precipitation is observed or not. If a precipitate is observed, no data of PPB is generated.

[3] = Plasma protein binding (equilibrium dialysis), human; settings: for fraction unbound: equilibrium dialysis, read-out: PPB (%), human (converted); for recovery: plasma (undiluted, freshly thawed), PPB assay recovery
Description: as §1, §2, §3, §4, §5, §6, §7

[4] = Metabolic stability in hepatocytes, rat; settings: hepatocytes (cryopreserved), read-out: Rat Clint (μL/min/10^6 cells)
Description: The aim of this assay is to determine the metabolic stability of the compound in hepatocytes (cryopreserved) of different species (mouse CD1, rat Sprague Dawley, dog Beagle). Low hepatocyte stability may result in the formation of unwanted metabolites, high clearance, and therefore is not desirable. The decrease in parent was assessed by measuring the percentage remaining by LC-MS/MS analysis. The batches of hepatocytes were tested for quality control using Testosterone, Umbelliferone and Caffeine as reference compounds.
A 10 mM stock solution of test compound in DMSO was first diluted in DMSO to 3 mM, and then in modified Krebs-Henseleit buffer (Sigma, K3753) to 5 μM. This compound dilution was added to a suspension of pooled cryopreserved hepatocytes (BioIVT) at 37° C. under gentle shaking. Final reaction conditions were: 1 μM of test compound, <0.1% DMSO, 0.5 million viable hepatocytes/mL, and 75 μL incubation volume.
After 0, 10, 20, 45, 90, 120 and 180 min of incubation, the reaction was terminated with 3 volumes of MeCN:MeOH (2:1) containing diclofenac as analytical internal standard. Samples were mixed, centrifuged and the supernatant analyzed by LC-MS/MS (systems API4000). The instrument responses (ratios of test compound and internal standard peak areas) were referenced to the zero time point samples (considered as 100%) in order to determine the percentage of compound remaining. Plots of percentage compound remaining were used to determine the intrinsic clearance in the hepatocyte incubations.
Testosterone (1 μM) and Umbelliferone (1 μM) and Caffeine (1 μM) were used as reference compounds, being unstable and stable compounds respectively. If the hepatocyte stability values for these controls are not in the range determined by the historical data, the assay is not validated.

Row | Structure (SMILES) | Mass retention (%) [1] [%] | Permeability Papp, Log10 (10^−6 cm/s) [1] | fraction unbound [2] | recovery [2] [%] | fraction unbound [3] | recovery [3] [%] | hepatocyte CLint [4] [µL/min/1e6 cells]
1 | CCCCOC(=O)NS(=O)(=O)c1ccc(C(F)(F)F)cc1N1CCN(Cc2nc3ccccc3n2C)CC1 [Compound A-09, butyl N-[2-[4-[(1-methylbenzimidazol-2-yl)methyl]piperazin-1-yl]-4-(trifluoromethyl)phenyl]sulfonylcarbamate] | 10 | <−7 Log10 (10^−6 cm/s) |  |  |  |  | 
2 | CCCCNC(=O)NS(=O)(=O)c1ccc(C(F)(F)F)cc1N1CCN(Cc2nc3ccccc3n2C)CC1 [Compound A-10, 1-butyl-3-[2-[4-[(1-methylbenzimidazol-2-yl)methyl]piperazin-1-yl]-4-(trifluoromethyl)phenyl]sulfonyl-urea] | 8 | <−7 Log10 (10^−6 cm/s) |  |  |  |  | 
3 | CCCCNC(=O)NS(=O)(=O)c1ccc(C)cc1N1CCN(Cc2nc3ccccc3n2C)CC1 [Compound A-12, 1-butyl-3-[4-methyl-2-[4-[(1-methylbenzimidazol-2-yl)methyl]piperazin-1-yl]phenyl]sulfonyl-urea] | 7 | <−7 Log10 (10^−6 cm/s) |  |  |  |  | 
4 | CC(C)Oc1ccc(-c2nn[nH]n2)c(N2CCN(Cc3nc4ccccc4n3C)CC2)c1 [Compound A-24, 2-[[4-[5-isopropoxy-2-(2H-tetrazol-5-yl)phenyl]piperazin-1-yl]methyl]-1-methyl-benzimidazole] | 24 | <−7 Log10 (10^−6 cm/s) |  |  |  |  | 
5 | CC(C)Cc1ccc(-c2nn[nH]n2)c(N2CCN(Cc3nc4ccccc4c(=O)[nH]3)CC2)c1 [Compound A-31, 2-[[4-[5-isobutyl-2-(2H-tetrazol-5-yl)phenyl]piperazin-1-yl]methyl]-3H-quinazolin-4-one] |  |  | < 0.05 | 88 | < 0.08 | 82 | 
6 | CC(C)Oc1ccc(-c2nn[nH]n2)c(N2CCN(Cc3nc4ccccc4c(=O)[nH]3)CC2)c1 [Compound A-32] | 20 | −4.6 Log10 (10^−6 cm/s) |  |  |  |  | 
7 | CC(C)Oc1ccc(-c2nn[nH]n2)c(N2CCN(Cc3nc4ccccc4s3)CC2)c1 [Compound A-51, 2-[[4-[5-isoprop-oxy-2-(2H-tetrazol-5-yl)phenyl]piper-azin-1-yl]methyl]-1,3-benzothiazole] | 14 | −4.2 Log10 (10^−6 cm/s) |  |  |  |  | 
8 | CCC1CN(c2cc(CC(C)C)cc(F)c2-c2nn[nH]n2)CCN1Cc1cccnn1 (stereo not shown) [Compound A-178, 3-[[2-ethyl-4-[3-fluoro-5-isobutyl-2-(2H-tetrazol-5-yl)phenyl]piperazin-1-yl]methyl]pyridazine] |  |  | 0.1 | 93 | 0.04 | 99 | 0.2

Next, values leading:

Row | Mass retention (%) [1] [%] | Permeability Papp, Log10 (10^−6 cm/s) [1] | fraction unbound [2] | recovery [2] [%] | fraction unbound [3] | recovery [3] [%] | hepatocyte CLint [4] [µL/min/1e6 cells] | Structure (SMILES)
9 | 28 | <−7 Log10 (10^−6 cm/s) |  |  |  |  |  | CC(C)Cc1ccc(-c2nn[nH]n2)c(N2CCN(Cc3nc4ccccc4n3C)CC2)c1 [Compound A-20, 2-[[4-[5-isobutyl-2-(2H-tetrazol-5-yl)-phenyl]piperazin-1-yl]methyl]-1-meth-yl-benzimidazole]
10 |  |  | 0.22 | 97 | 0.05 | 83 |  | CC(C)Cc1ccc(-c2nn[nH]n2)c(N2CCN(Cc3cccnn3)CC2)c1 [Compound A-90, 3-[[4-[5-isobutyl-2-(2H-tetrazol-5-yl)phenyl]piperazin-1-yl]methyl]pyridazine]
11 |  |  | 0.12 | 92 | 0.05 | 94 | 2 | CC(C)Cc1cc(F)c(-c2nn[nH]n2)c(N2CCN(Cc3cccnn3)C(C)C2)c1 (stereo not shown) [Compound A-173, 3-[[4-[3-fluoro-5-isobutyl-2-(2H-tetrazol-5-yl)phenyl]-2-methyl-piperazin-1-yl]methyl]pyridazine]
12 | 0 | −5.5 Log10 (10^−6 cm/s) | 0.027 | 95 | 0.026 | 99 | 10.5 | CC(C)Cc1cc(F)c(-c2nn[nH]n2)c(N2CCN(Cc3cccnn3)[C@@H](C)C2)c1 [Compound A-174, 3-[[(2S)-4-[3-fluoro-5-isobutyl-2-(2H-tetrazol-5-yl)phenyl]-2-methyl-piperazin-1-yl]methyl]pyridazine]
13 |  |  | 0.07 | 96 | 0.03 | 95 | 1 | CCC1CN(Cc2cccnn2)CCN1c1cc(CC(C)C)cc(F)c1-c1nn[nH]n1 (stereo not shown) [Compound A-181, 3-[[3-ethyl-4-[3-fluoro-5-isobutyl-2-(2H-tetrazol-5-yl)phenyl]piperazin-1-yl]methyl]pyridazine]
14 |  |  | 0.13 | 90 | 0.06 | 96 | 2.6 | CC(C)Cc1cc(F)c(-c2nn[nH]n2)c(N2CC(C)N(Cc3cccnn3)CC2C)c1 (stereo not shown) [Compound A-183, 3-[[4-[3-fluoro-5-isobutyl-2-(2H-tetrazol-5-yl)phen-yl]-2,5-dimethyl-piperazin-1-yl]-methyl]pyridazine]
15 |  |  |  |  | 0.004 | 100 | 8.7 | CC(C)Cc1cc(F)c(-c2nn[nH]n2)c(N2CCN(Cc3ccccn3)[C@@H](C)C2)c1 [Compound A-217, (2S)-4-[3-fluoro-5-isobutyl-2-(2H-tetrazol-5-yl)phenyl]-2-methyl-1-(2-pyridylmethyl)piperazine]
